Measurements as given in patent publication US10369124B2, “Dendrimer compositions and their use in treatment of diseases of the eye” (The Johns Hopkins University, priority 2014, dated 2019).

What was measured:
[1] = Quantitative biodistribution of D-Cy5 in vital organs by fluorescence spectroscopy (FLS); assay type: in vivo, BALB/c mice; details: IV
Procedure: Biodistribution analysis of D-Cy5 in vital organs. Twelve BALB-C mice weighing ˜25 gr BW were used for this study. Four animals were sacrificed at each time point: 24 hours, 72 hours and 21 days. Each mouse was injected via femoral vein with 600 μg of D-Cy5 in 100 μL of sterile PBS. At respective time point, the animals were euthanized and vital organs (heart, lungs, spleen, kidney, liver and eyes) were harvested immediately and organ wet weights were noted. Organs were snap frozen on dry ice, and stored at −80° C. until analysis. Upon analysis, the tissues were thawed and approximately 100-150 mg of tissue were measured and homogenized with 1 ml of MeOH in low DNA binding tubes (Eppendorf AG, Hamburg, Germany) using stainless steel bead and tissue homogenizer (Tissuelyzer LT, QIAGEN, Hilden, Germany) resulting in a pulpy tissue suspension. The suspension was sonicated for 30 minutes and appropriate volumes containing 100 mg of tissue were placed in different low DNA binding vials and diluted with methanol to 1 ml so that the same amount of tissue and same volume was analyzed for each sample. The samples were centrifuged at 10,000 rpm for 10 minutes at 4° C. resulting in supernatants, which were subjected to fluorescence spectroscopy (FLS).
Quantitative biodistribution of D-Cy5 in vital organs. Quantitative biodistribution in vital organs (liver, kidney, spleen, heart, lungs and serum) and kinetics of D-Cy5 injected intravenously into animals with I/R injury was assessed using FLS (fluorescence spectroscopy) method. For analysis, weight of tissues was measured before being homogenized and D-Cy5 was extracted using methanol as described previously by Lesniak et al. (Molecular pharmaceutics 10 (12), 4560-4571). The D-Cy conjugates were intact stable in human plasma at 37° C. and in vivo, and also the applied methanol extraction protocol yielded best recovery of 96%. The methanol extracts were subjected to fluorescence measurements for emission values using fluorescence spectrophotometer. […]

[2] = tested on: Iba-1+ microglia/macrophages in retina; assay: Retinal biodistribution of D-Cy5 by immunohistochemistry and confocal microscopy in ischemia/reperfusion (I/R) injury; details: mouse, in vivo
Procedure: Animals & Ischemia reperfusion (I/R) injury. All procedures involving the animals conformed to the ARVO Statement for the Use of Animals in Ophthalmic and Vision Research. BALB/c albino mice, each weighing ˜25 grams, housed in Wilmer animal facility at Johns Hopkins were used for transport as well as I/R studies. All surgeries were performed under ketamine (100 mg/Kg) and Xylazine (10 mg/kg) peritoneal anaesthesia. Six mice were used in each group at each time point. I/R injury was performed in the left eye by following the procedure described elsewhere. Briefly, the anterior chamber was cannulated with 30 gauze needle attached to a line infusing saline. The saline system is mounted on to a custom-made saline reservoir and elevated to certain height (calibrated to 90 mm Hg). The IOP was elevated to 90 mm Hg for 90 minutes and I/R injury and shut off of choroidal circulation was evidenced by blanching of the posterior segment via fundus examination through the operating microscope. After ischemia, the needle was immediately withdrawn for immediate blood reperfusion. The right eye had no I/R injury and served as control.
Dendrimer injection and Animal sacrifice. Six days post I/R injury, BALB/c mice were injected with dendrimer either intravitreally or intravenously. […]
Immunohistochemistry and confocal microscopy. […] Sections were analysed on a Zeiss 510 confocal microscope. […]

[3] = tested on: choroidal neovascularization (CNV); assay: CNV area in lipid (HpODE) injected CNV rat model, choroidal flat mounts; assay type: in vivo, SD rats; details: systemic, 20 mg/kg on NAC basis, assessed Day 10
Procedure: CNV rat model. Male SD rats of ˜300 grams each were chosen for this study. Lipid 3(S)-hydroperoxy-9Z,11E-octadecadienoic acid (HpODE) (Cayman Chemicals, Michigan, USA.) was dissolved in cold borate buffer at a concentration of 500 μg/33 μL. Two μL of lipid was injected sub-retinal on day 1 forming a bleb in retina. By day 3 the lipid bleb was gone and retinal degeneration began. At day 7 post-lipid injection, neovascularization from choroid (CNV) begins to form and inflammation occurs in retina and choroid as well as neovascularization in retina (RNV). This model causes damage to both choroid and retina and has characteristics of both dry and wed AMD forms (FIG. 12A).
Effect of N-acetal-Cysteine (NAC) on CNV model. A combination of D-NAC (dendrimer-NAC; 10 mg/kg on a NAC basis) and 6 mg of D-Cy5 were injected intravenously via penile vein on day 3 post lipid injection and animals were sacrificed on day 7 post injection. The animals injected with D-Cy5 and PBS served as controls. […] The confocal images choroids of D-NAC treated and control groups were analyzed for CNV area measurements using Image-J software. […]
D-NAC was administered on Day 3 (two days after lipid administration), and on day 5 and day 7 at 20 mg/kg on a NAC basis. […] CNV areas were assessed using morphometric analysis (yellow delineation) in Image-J software. […] Values were analyzed using Mann-Whitney t-test with n=12 and P<0.001

[4] = tested on: IL-1β, IL-6, MCP-1, TNFα, IL-10; assay: Retina cytokine levels by ELISA in CNV rat model; assay type: in vivo, SD rats; details: n=8/group
Procedure: (§1) CNV rat model. Male SD rats of ˜300 grams each were chosen for this study. Lipid 3(S)-hydroperoxy-9Z,11E-octadecadienoic acid (HpODE) (Cayman Chemicals, Michigan, USA.) was dissolved in cold borate buffer at a concentration of 500 μg/33 μL. Two μL of lipid was injected sub-retinal on day 1 forming a bleb in retina.
The effect of D-NAC on retinal inflammation was assessed in a blinded manner, by measuring proinflammatory (IL-1β, IL-6, MCP-1, and TNFα) and anti-inflammatory (IL-10) cytokine levels.

[5] = tested on: IL-1β, IL-6, MCP-1, TNFα, IL-10; assay: Choroid cytokine levels by ELISA in CNV rat model; assay type: in vivo, SD rats; details: n=8 choroids/group
Procedure: FIGS. 16A-16C depict that the choroids from the different groups were analyzed using ELISA (n=8 choroids/group).
as §1
The effect of D-NAC choroidal inflammation was assessed in a blinded manner, by measuring proinflammatory (IL-1β, IL-6, MCP-1-monocyte chemoattractant, and TNFα) and anti-inflammatory cytokine levels (IL-10).

| accumulation in kidney ([1]; 24 hours) | fluorescent signal in other organs (than kidney) ([1]; 24 hours) | level in any of the organs ([1]; 72 hours) | Structure (SMILES) | retinal clearance [2] | retinal clearance ([2]; iv) | effect on CNV areas compared to PBS [3] | proinflammatory cytokines in retina [4] | proinflammatory cytokines in choroid [5] |
| --- | --- | --- | --- | --- | --- | --- | --- | --- |
| 0.82±2.93 % of injected dose (ID)/organ | could not detect any fluorescent signals | not detectable | CCN1/C(=C/C=C/C=C/C2=[N+](CCCCCC(=O)O)c3ccc(S(=O)(=O)O)cc3C2(C)C)C(C)(C)c2cc(S(=O)(=O)[O-])ccc21 [free Cy5] | completely cleared | cleared | – | – | – |
| – | – | – | CC(=O)N[C@@H](CS)C(=O)O [free NAC, N-acetyl cysteine] | – | – | some decrease that was not significant | not effective | not effective |
